Data set [1] concerns Liver. The experiment in a line: Drug level in human liver S9 fraction treated with 10 uM mebendazole after 19.80 to 20.76 mins by HPLC-MS analysis. Format: ADME, subcellular.
Data set [2] is described as follows: Drug level in human intestinal S9 fraction treated with 10 uM mebendazole 20.69 mins by HPLC-MS analysis. The class given is ADME, Intestine. The conditions noted are these: s9, 0.344833 h.
Data set [3] relates to Liver cytosol. The experiment in a line: Drug level in human liver cytosol treated with 10 uM mebendazole after 20.80 mins by HPLC-MS analysis. Format: ADME, tissue-based. The conditions noted are these: 0.346667 h.
Data set [4] can be described thus: Drug level in human intestinal cytosol treated with 10 uM mebendazole after 20.74 mins by HPLC-MS analysis. The class given is ADME, Intestine. To be noted: 0.345667 h.
Data set [5] can be described thus: Drug metabolism in human intestinal cytosol at 200 nM after 60 mins in presence of flufenamic acid. To be noted: 1 h, 0.2 µM. Format: ADME, Intestine.
Data set [6] can be described thus: Drug metabolism in human intestinal cytosol at 200 nM after 60 mins in presence of ondansetron. To be noted: 1 h, 0.2 µM. The class given is ADME, Intestine.
The nature of data set [7]: Apparent permeability of the compound at 50 uM at pH 7.4 after 240 mins by PAMPA. The class given is physicochemical.
Data set [8] deals with T1, carbonyl reductase (Carbonyl reductase [NADPH] 1) (Homo sapiens, UniProt P16152).
T1 sequence (P16152 whole entry): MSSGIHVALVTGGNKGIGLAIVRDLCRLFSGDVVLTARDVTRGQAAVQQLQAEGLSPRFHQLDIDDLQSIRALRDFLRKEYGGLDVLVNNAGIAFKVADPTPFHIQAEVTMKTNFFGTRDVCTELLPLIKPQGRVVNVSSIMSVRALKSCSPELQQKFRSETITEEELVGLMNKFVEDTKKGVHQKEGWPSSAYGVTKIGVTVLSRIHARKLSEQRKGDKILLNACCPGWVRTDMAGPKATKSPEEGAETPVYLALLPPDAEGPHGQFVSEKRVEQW
The data set can be described thus: Activity of carbonyl reductase in liver cytosol (unknown origin) assessed as enzyme-mediated drug metabolism. Format: ADME, tissue-based.

Data set [9] deals with T1, carbonyl reductase (Carbonyl reductase [NADPH] 1). The data set can be described thus: Activity of recombinant carbonyl reductase (unknown origin). The class given is ADME.
A short description of data set [10]: Metabolic stability in human intestinal microsomes assessed as compound remaining at 50 to 1000 nM after 60 mins by HPLC-MS/MS analysis. The conditions noted are these: read-out: Stability. The class given is ADME, Intestine, Microsome.
Data set [11] in a line: Metabolic stability in human intestinal cytosol at 200 nM after 30 mins in presence of menadione. Format: ADME, Intestine. The conditions noted are these: 0.5 h, 0.2 µM.
Data set [12] is described as follows: Drug metabolism in human liver S9 fraction assessed as hydrolyzed metabolite formation at 10 uM after 19.80 mins by HPLC-MS analysis. To be noted: s9, 0.33 h. The class given is ADME, subcellular.
The nature of data set [13]: Metabolic stability in human intestinal S9 fraction assessed as compound remaining at 50 to 1000 nM after 60 mins by HPLC-MS/MS analysis in presence of NADH. On the set-up: dose or concentration left out as unconfirmed.
The conditions of data set [14]: human, s9, 1 h, 1 µM.
A short description of data set [15]: Drug metabolism in human intestinal cytosol at 200 nM after 30 mins in presence of ondansetron. The class given is ADME, Intestine. To be noted: 0.5 h, 0.2 µM.
The nature of data set [16]: Drug metabolism in human intestinal cytosol at 200 nM after 30 mins in presence of flufenamic acid. The class given is ADME, Intestine. To be noted: 0.5 h, 0.2 µM.
Data set [17] has as its system Liver microsome. The data set can be described thus: Unbound intrinsic clearance in human liver microsomes at 50 to 1000 nM after 30 to 60 mins by HPLC-MS/MS analysis. The class given is ADME. The conditions noted are these: 1 µM. In general terms: Liver microsomes are vesicles of endoplasmic reticulum, rich in cytochrome P450 enzymes.
Data set [18] is described as follows: Drug metabolism in human intestinal S9 fraction assessed as reductive metabolite formation at 10 uM after 20.69 mins by HPLC-MS analysis. To be noted: s9, 0.344833 h. Format: ADME, Intestine.
The nature of data set [19]: Intrinsic clearance in human intestinal S9 fraction at 50 to 1000 nM after 60 mins by HPLC-MS/MS analysis. The class given is ADME, Intestine. To be noted: s9, 1 h, 1 µM.
The nature of data set [20]: Metabolic stability in human intestinal S9 fraction assessed as compound remaining at 50 to 1000 nM after 60 mins by HPLC-MS/MS analysis. The conditions noted are these: read-out: Stability. The class given is ADME, Intestine.
A short description of data set [21]: Drug metabolism in human liver S9 fraction assessed as reductive metabolite formation at 10 uM after 20.76 mins by HPLC-MS analysis. Format: ADME, subcellular. To be noted: s9, 0.346 h.
Data set [22] is described as follows: Drug metabolism in human intestinal cytosol assessed as reductive metabolite formation at 10 uM after 20.74 mins by HPLC-MS analysis. Format: ADME, Intestine. To be noted: 0.345667 h.
The subject of data set [23] is Liver microsome. The experiment in a line: Drug metabolism in human liver microsomes assessed as hydrolyzed metabolite formation at 10 uM after 19.83 mins by HPLC-MS analysis. The class given is ADME. To be noted: 0.3305 h.
Data set [24] in a line: Intrinsic clearance in human intestinal microsomes at 50 to 1000 nM after 60 mins by HPLC-MS/MS analysis. To be noted: 1 h, 1 µM. The class given is ADME, Intestine, Microsome.
In data set [25] the test system is Liver cytosol. The data set can be described thus: Drug metabolism in human liver cytosol assessed as reductive metabolite formation at 10 uM after 20.80 mins by HPLC-MS analysis. Format: ADME, tissue-based. To be noted: 0.346667 h.
A short description of data set [26]: Unbound intrinsic clearance in human intestinal S9 fraction at 50 to 1000 nM after 30 to 60 mins by HPLC-MS/MS analysis in presence of NADH. The class given is ADME, Intestine. The conditions noted are these: s9, 1 µM.
Data set [27] is described as follows: Unbound intrinsic clearance in human intestinal S9 fraction at 50 to 1000 nM after 30 to 60 mins by HPLC-MS/MS analysis. The class given is ADME, Intestine. The conditions noted are these: s9, 1 µM.
Data set [28] can be described thus: Unbound intrinsic clearance in human intestinal S9 fraction at 50 to 1000 nM after 30 to 60 mins by HPLC-MS/MS analysis in presence of NADPH. The class given is ADME, Intestine. The conditions noted are these: s9, 1 µM.
Data set [29] can be described thus: Unbound intrinsic clearance in human intestinal microsomes at 50 to 1000 nM after 30 to 60 mins by HPLC-MS/MS analysis. Format: ADME, Intestine, Microsome. To be noted: 1 µM.
In data set [30] the test system is Liver cytosol. The experiment in a line: Unbound intrinsic clearance in human liver cytosol at 50 to 1000 nM after 30 to 60 mins by HPLC-MS/MS analysis. The class given is ADME, tissue-based. The conditions noted are these: 1 µM.
A short description of data set [31]: Unbound intrinsic clearance in human intestinal cytosol at 50 to 1000 nM after 30 to 60 mins by HPLC-MS/MS analysis. Format: ADME, Intestine. The conditions noted are these: 1 µM.
Data set [32] has as its system Liver. The data set can be described thus: Unbound intrinsic clearance in human liver S9 fraction at 50 to 1000 nM after 30 to 60 mins by HPLC-MS/MS analysis. The class given is ADME, subcellular. The conditions noted are these: s9, 1 µM.
Data set [33] can be described thus: Metabolic stability in human intestinal cytosol at 200 nM after 60 mins in presence of menadione. Format: ADME, Intestine. The conditions noted are these: 1 h, 0.2 µM.

With `Nc1nc2ccc(C(=O)c3ccccc3)cc2[nH]1`, the Drug metabolism entry with Liver [1] is “metabolite_detected”.
`COC(=O)Nc1nc2ccc(C(O)c3ccccc3)cc2[nH]1` (stereo unspecified): the Drug metabolism entry (in data set [2]; in the data set on Liver cytosol [3]; in data set [4]; in the data set on Liver [1]) was “metabolite_detected” each time.
Turning to `O=C(CCCN1CCC(O)(c2ccc(Cl)cc2)CC1)c1ccc(F)cc1` [HALOPERIDOL], the Drug metabolism entry in data set [5] and in data set [6] was “metabolite_detected” in each case. Also, the apparent permeability (Papp) at 4 h, 50 µM in data set [7] worked out at 33.7 ×10⁻⁶ cm/s. For the same molecule, the Km in data set [8] was 250 µM; in data set [9], 1200 µM.
On to `COC(=O)Nc1nc2ccc(C(=O)c3ccccc3)cc2[nH]1` [MEBENDAZOLE], for which the remaining at 1 h, up to 1 µM in [10] and in [20] was more than 90% each time. Further, in data set [11], the Stability result is reported as “Stable”. Moreover, the Drug metabolism entry in [12], in [15], in [16], in data set [18], in data set [21] and in data set [22] was “metabolite_detected” in each case. Further, the Drug metabolism entry in the data set with Liver microsome [23] and in the data set on Liver cytosol [25] was “metabolite_detected” in each case. Moreover, the remaining at 1 h in data set [13] was more than 90%. Further, the CL in [14] was less than 1.8 µL/min/mg; in [19] it was less than 1.8 µL/min/mg; in data set [24] it was less than 8.8 µL/min/mg. The CL free with Liver microsome [17] was found to be 9 µL/min/mg. In addition, the Papp at 4 h, 50 µM in data set [7] was determined as 48.5 ×10⁻⁶ cm/s.
Take `O=C1Cc2cc(CCN3CCN(c4nsc5ccccc45)CC3)c(Cl)cc2N1` [ZIPRASIDONE]: the CL free in data set [26] was 15 µL/min/mg; in [27], 28 µL/min/mg; in data set [28] it was 28 µL/min/mg; in the data set on Liver microsome [17], 118 µL/min/mg; in data set [29] it was 29 µL/min/mg; in the data set on Liver cytosol [30], 23 µL/min/mg. The CL free in data set [31] was found to be 15 µL/min/mg; with Liver [32], 89 µL/min/mg. In addition, the Drug metabolism entry in data set [5] and in data set [6] was “metabolite_detected” throughout. The CL in data set [19] was less than 1.8 µL/min/mg. Also, in data set [20], the remaining at 1 h, up to 1 µM is more than 90%. Also, in [7], the Papp at 4 h, 50 µM turned out to be 67.2 ×10⁻⁶ cm/s. Besides, the Stability result in [33] is “Stable”.

For orientation: Papp means a coefficient for how fast a substance crosses the barrier. A word on the Km: it is the substrate concentration at which the rate is half of its maximum.

These data come from ChEMBL document CHEMBL3525922, “Significance of reductive metabolism in human intestine and quantitative prediction of intestinal first-pass metabolism by cytosolic reductive enzymes” (Drug Metab Dispos, 2013).
